Reference: patent US10499676B2, “Intestinal barrier integrity” (N.V. Nutricia, priority 2004, dated 2019)

Key:
[1] = system: intestinal epithelial cell line T84 monolayers; test: Effect of LC-PUFA on basal (spontaneous) barrier integrity: TER and 4 kDa FITC-dextran flux; assay type: cell-based, human; conditions: for basal barrier integrity (TER), time and dose dependent effect: FIGS. 1A and 1B, 10 μM and 100 μM; for Flux / Resistance (TER): fatty acid 100 μM, 72 hr incubation, spontaneous barrier integrity; for Flux: 4 kDa FITC-dextran
Experimental: (§1) Monolayers (MC) of intestinal epithelial cell lines T84 (American Type Culture Collection (ATTC), Manassas, USA) were cultured on transwell filters (Corning, Costar BV, The Netherlands) allowing both mucosal and serosal sampling and stimulation of human intestinal epithelial cells. Two weeks post confluency the monolayers were incubated in the luminal compartment with polyunsaturated fatty acids ARA (arachidonic acid; 5,8,11,14-eicosatetraenoic acid), DHA (cis-4,7,10,13,16,19 docosahexaenoic acid), EPA (eicosapentaenoic acid) or control palmitic (C 16:0) acid (Palm) (Sigma, St. Louis, USA). The latter procedure was chosen to mimic the in vivo administration route of the dietary compounds. Cells were incubated with ARA, DHA, EPA, or palmitic acid for 0, 24, 48 and 72 hr at different concentrations (10 μM and 100 μM). Experiments were performed to evaluate basal barrier integrity. The epithelial barrier function was determined by measuring the transepithelial resistance (TER, Ω·cm^2) was measured by epithelial volt-ohm meter (EVOM; World Precision Instruments, Germany) and permeability for 4 kD FITC dextran (paracellular permeability marker, Sigma, USA). Resistance (Epithelial permeability for 4 kDa FITC-dextran was determined as follows. Prior to dextran fluxes the medium was refreshed with culture medium without phenol red for one hour followed by addition of 5 μl (stock 100 mg/ml) 4 kDa FITC-dextran to the lumenal compartment. After 30 min incubation 100 μl sample was collected from the serosal compartment and the fluorescent signal measured at excitation wavelength 485 nm and emission 520 nm (FLUOstar Galaxy®, BMG Labtechnologies, USA). FITC-dextran fluxes were calculated as pmol FITC-dextran/cm^2/h. Statistical analyses were performed using the ANOVA (SPSS version 10).

[2] = system: intestinal epithelial cell line T84 monolayers incubated with IL-4; test: Effect of LC-PUFA on IL-4 mediated barrier disruption: TER and 4 kDa FITC-dextran flux; assay type: cell-based, human; conditions: for protective effect on IL-4 mediated barrier destruction (Flux), time and dose dependent: FIGS. 2A and 2B, 10 μM and 100 μM, 4 kD dextran flux; for IL-4 Flux / IL-4 TER: fatty acid 100 μM, 48 hr pre-incubation then 48 hr co-incubation with IL-4 2 ng/ml
Experimental: as §1
Monolayers (MC) of intestinal epithelial cell lines T84 (ATCC, USA) were cultured on transwell filters (Corning, Costar BV, The Netherlands) allowing both mucosal and serosal sampling and stimulation of human intestinal epithelial cells. Two weeks post confluency the monolayers were incubated in the presence of IL-4 (2 ng/ml, serosal compartment, Sigma, USA) with or without polyunsaturated fatty acids ARA, DHA, GLA, EPA, or control palmitic acid (10 μM or 100 μM, mucosal compartment, Sigma, St. Louis, USA). Cells were pre-incubated with ARA, DHA, EPA, or palmitic acid for 48 hr prior to the IL-4 incubation. The co-incubation of PUFA's and palmetic acid with IL-4 was continued for another 48 hr; while culture medium and additives were changed every 24 hr. The epithelial barrier function was determined by measuring the transepithelial resistance (TER) and permeability as described in example 1. Statistical evaluation was performed as described in example 1.

[3] = system: MUC-2 expression in intestinal epithelial T84 cells; conditions: FIG. 4, 24 h, 0.025-4.0 mM, compared to propionate and butyrate

## CCC=CCC=CCC=CCC=CCC=CC/C=C\CCC(=O)O [DHA, cis-4,7,10,13,16,19 docosahexaenoic acid]
[1]
  basal barrier integrity (TER), time and dose dependent effect: increased resistance
  Flux: 72 pmol FITC-dextran/cm^2/h
  Resistance (TER): 1574 Ω·cm^2
[2]
  protective effect on IL-4 mediated barrier destruction (Flux), time and dose dependent: decreased 4 kD dextran flux
  IL-4 Flux: 271 pmol FITC-dextran/cm^2/h
  IL-4 TER: 547 Ω·cm^2

## CCCCC/C=C\C/C=C\C/C=C\C/C=C\CCCC(=O)O [ARA, 5,8,11,14-eicosatetraenoic acid]
[1]
  basal barrier integrity (TER), time and dose dependent effect: increased resistance
  Flux: 28 pmol FITC-dextran/cm^2/h
  Resistance (TER): 1816 Ω·cm^2
[2]
  protective effect on IL-4 mediated barrier destruction (Flux), time and dose dependent: decreased 4 kD dextran flux
  IL-4 Flux: 218 pmol FITC-dextran/cm^2/h
  IL-4 TER: 636 Ω·cm^2

## CC/C=C\C/C=C\C/C=C\C/C=C\C/C=C\CCCC(=O)O [EPA, eicosapentaenoic acid]
[1]
  Flux: 65 pmol FITC-dextran/cm^2/h
  Resistance (TER): 1493 Ω·cm^2
[2]
  IL-4 Flux: 228 pmol FITC-dextran/cm^2/h
  IL-4 TER: 539 Ω·cm^2

## CC(=O)O [acetate]
[3]
  MUC-2 expression (mucus production): more potent in stimulating MUC-2 expression

## CCCCCCCCCCCCCCCC(=O)O [Palmitic acid, palmitic (C 16:0) acid, reference compound]
[1]
  Flux: 161 pmol FITC-dextran/cm^2/h
  Resistance (TER): 831 Ω·cm^2
[2]
  IL-4 Flux: 777 pmol FITC-dextran/cm^2/h
  IL-4 TER: 321 Ω·cm^2

## CCCCC/C=C\C/C=C\C/C=C\CCCCC(=O)O [GLA]
[1]
  basal barrier integrity (TER), time and dose dependent effect: increased resistance
[2]
  protective effect on IL-4 mediated barrier destruction (Flux), time and dose dependent: decreased 4 kD dextran flux
